Results reported in patent US11628159B2, “Cell-protective compounds and their use” (ETH ZURICH, priority 2017, dated 2023).
“Also recorded” adds a separate entry of the source.

Assays:
[1] = tested on: GRK2-mediated phosphorylation of Srsf1; assay: Cardiac Srsf1 phosphorylation under basal conditions in non-transgenic B6 mice after short-term treatment; type: in vivo, mouse; settings: 10 mg/kg i.p., 5 h, immunoblot, relative to vehicle
Method: A, The GRK2-mediated phosphorylation of Srsf1 was determined by immunoblot in cardiac lysates prepared from hearts of non-transgenic B6 mice after treatment (i.p.) for 5 h with 10 mg/kg of 1-(1,3-benzodioxol-5-yl)-4-(cyclopropane-carbonyl)-3-hydroxy-2-phenyl-2H-pyrrol-5-one (“Compound-1”), 4-(1,3-benzodioxol-5-yl)pyrimidine (“Compound-4”), 1-(1,3-benzodioxol-5-ylmethyl)-5-(4-fluorophenyl)-2-methyl-pyrrole-3-carboxamide (“Compound-2”), or (4R)-N3-(1,3-benzodioxol-5-ylmethyl)-N4-[[3-(trifluoromethyl)phenyl]-methyl]pyrrolidine-3,4-dicarboxamide (“Compound-5”) relative to vehicle-treated B6 controls (“con”). […] B, Left panel: The AAC-induced cardiac p-Srsf1 content was determined in cardiac lysates from B6 mice with AAC after treatment for 7 days with 5 mg/kg/d of 1-(1,3-benzodioxol-5-yl)-4-(cyclopropane-carbonyl)-3-hydroxy-2-phenyl-2H-pyrrol-5-one (“Compound-1”) or (4R)-N3-(1,3-benzodioxol-5-ylmethyl)-N4-[[3-(trifluoromethyl)phenyl]-methyl]pyrrolidine-3,4-dicarboxamide (“Compound-5”) relative to vehicle-treated B6 controls with AAC (“AAC-con”). […] Right and lower panels: Cardiac function parameters were determined by echocardiography in B6 mice with AAC after treatment for 7 days with “Compound-1” or “Compound-5” relative to vehicle-treated B6 controls with AAC ((±s.d.; n=5 (A) and n=3 (B); Dunnett's Multiple Comparison Test vs. con (A) or AAC-con (B)).

B6 mice with AAC = assay: Chronic pressure overload (AAC) model of heart failure, oral treatment for 2 months; type: in vivo, mouse; settings: for left ventricular ejection fraction: B6 mice, oral 2 months, Compound-1 3 mg/kg/d, Compound-4 5 mg/kg/d, untreated AAC 28.6%±3.5%, ±s.d., n=5
Method: A, The left ventricular ejection fraction was determined in 6 month-old male B6 mice with chronic pressure overload imposed by 3 months of AAC and oral treatment with Compound-1 (AAC+compd-1) and Compound-4 (AAC+compd-4) relative to untreated AAC controls. Treatment was started one month after AAC induction and was continued for 2 months. Only mice with heart failure (ejection fraction <34% after one month of AAC) were included in the study (±s.d., n=5/group, ***p=0.0006, **p=0.0051 vs. untreated AAC; Dunnett's multiple comparison test).
We investigated whether the new small molecule GRK2 inhibitors, Compound-1 (1-(1,3-benzodioxol-5-yl)-4-(cyclopropanecarbonyl)-3-hydroxy-2-phenyl-2H-pyrrol-5-one)) and Compound-4 (4-(1,3-benzodioxol-5-yl)pyrimidine) could retard symptoms of heart failure in a chronic pressure overload model of heart failure imposed by abdominal aortic constriction (AAC). Compound-1 (3 mg/kg/d) and Compound-4 (5 mg/kg/d) were applied orally in the AAC-induced model of heart failure. Oral treatment with Compound-1 and Compound-4 was initiated in B6 mice with symptoms of heart failure (left ventricular ejection fraction <34%) induced by four weeks of AAC.
Chronic pressure overload imposed by abdominal aortic constriction (AAC) was used as an experimental model to induce cardiac hypertrophy and signs of heart failure. Aortic constriction of the abdominal aorta was performed in tribromoethanol-anesthetized 8-12 week-old transgenic mice or non-transgenic B6 controls as described (AbdAlla S, et al., Cardiovasc. Hematological Agents Med. Chem. 9, 190-206 (2011)). The abdominal aorta was constricted above the suprarenal artery by tying a 7-0 silk suture ligature against a blunt 26-gauge needle. Age-matched controls underwent identical surgical procedure except for ligation of the aorta (sham-operated mice).

GPCR phosphorylation = settings: Lorenz K, et al., Nature 426, 574-579 (2003); read-out: reported IC50 value for RKIP-mediated inhibition of GPCR phosphorylation; cited from earlier work

## O=C(C1=C(O)C(c2ccccc2)N(c2ccc3c(c2)OCO3)C1=O)C1CC1 (stereo not shown) [Compound-1, 1-(1,3-benzodioxol-5-yl)-4-(cyclopropane-carbonyl)-3-hydroxy-2-phenyl-2H-pyrrol-5-one]
[1]
  GRK2-mediated Srsf1 phosphorylation under basal conditions in the hearts of non-transgenic B6 mice: decreased
B6 mice with AAC; 2 months (8 weeks) of treatment, AAC mice
  cardiovascular disease-induced ageing (grey coloring of the hair): substantially retarded
B6 mice with AAC; 3 months AAC, 2 months oral treatment
  AAC-induced cardiac hypertrophy (histology): retards; also recorded: decrease
B6 mice with AAC; 3 months AAC
  left ventricular ejection fraction: 41.4±4.8%

## c1cc(-c2ccc3c(c2)OCO3)ncn1 [Compound-4, 4-(1,3-benzodioxol-5-yl)pyrimidine]
[1]
  GRK2-mediated Srsf1 phosphorylation under basal conditions in the hearts of non-transgenic B6 mice: decreased
B6 mice with AAC; 3 months AAC
  left ventricular ejection fraction: 38.2±3.7%

B1: RKIP: raf kinase inhibitor protein, a dual-specific GRK2 and Raf kinase inhibitor (protein, UniProt P30086 2-187, looked up)
Phosphatidylethanolamine-bindi …: PVDLSKWSGPLSLQEVDEQPQHPLHVTYAGAAVDELGKVLTPTQVKNRPTSISWDGLDSGKLYTLVLTDPDAPSRKDPKYREWHHFLVVNMKGNDISSGTVLSDYVGSGPPKGTGLHRYVWLVYEQDRPLKCDEPILSNRSGDHRGKFKVASFRKKYELRAPVAGTCYQAEWDDYVPKLYEQLSGK
GPCR phosphorylation
  IC50: 0.46 µM
